Here are results for three compounds from patent US20080306257A1, “Syntheses and Preparations of Narwedine and Related Novel Compounds” (priority 2005, published 2008).

Common to all, as to type: physicochemical
A short description of data set [1]: solubility of (−)-galanthamine hydrobromide in water. Here is the method: (§1) It has been further observed that (−)-galanthamine hydrobromide can be further purified with high yield and without degradation of the material by crystallization in water in the presence of ammonium bromide. Lower yields are obtained using water in the absence of ammonium bromide due to the high solubility of (−)-galanthamine hydrobromide in water (about 50 mg/mL at room temperature and 300 mg/mL at reflux temperature).

Data set [2] is described as follows: epimerization of (−)-galanthamine under acidic conditions. To be noted: under acidic conditions (presence of hydrobromic acid). The procedure:
as §1

The nature of data set [3]: racemization in THF solution. To be noted: THF solution at approximately 0° C. Here is the method:
Advantage of this aspect of invention include, among others, the reduction reaction of (−)-narwedine-BF3 complex can be carried out at approximately 0° C.

Regarding `Br.COc1ccc2c3c1O[C@H]1C[C@@H](O)C=C[C@@]31CCN(C)C2` [(−)-galanthamine hydrobromide], the solubility in water in data set [1] (at reflux temperature) is recorded as around 300 mg/mL; in data set [1] (at room temperature) it was “about 50 mg/mL”.

On to `COc1ccc2c3c1O[C@H]1C[C@@H](O)C=C[C@@]31CCN(C)C2` [(−)-galanthamine, (4aS,6R,8aS)-4a,5,9,10,11,12-hexahydro-3-methoxy-11-methyl-6H-benzofuro[3a,3,2-ef][2]benzazepin-6-ol], for which, in data set [2], the “epimerization to (−)-epigalanthamine (stability)” value is given as “rapidly epimerized”.

Take “(−)-narwedine-BF3 complex [(−)-narwedine.BF3 complex]”: the “racemization (configurational stability)” value in data set [3] is “racemizes very slowly”.
